{"source": "paper PMC4586513", "about": "“Mitochondrial ADP/ATP exchange inhibition: a novel off-target mechanism underlying ibipinabant-induced myotoxicity” (Scientific Reports, 2015)", "biological_target": "T1, adenine nucleotide translocase 1 (ANT1) (Bos taurus, UniProt P02722)", "T1 construct": "gene SLC25A4; native ANT in isolated bovine heart mitochondria", "T1 sequence (P02722 2-298)": "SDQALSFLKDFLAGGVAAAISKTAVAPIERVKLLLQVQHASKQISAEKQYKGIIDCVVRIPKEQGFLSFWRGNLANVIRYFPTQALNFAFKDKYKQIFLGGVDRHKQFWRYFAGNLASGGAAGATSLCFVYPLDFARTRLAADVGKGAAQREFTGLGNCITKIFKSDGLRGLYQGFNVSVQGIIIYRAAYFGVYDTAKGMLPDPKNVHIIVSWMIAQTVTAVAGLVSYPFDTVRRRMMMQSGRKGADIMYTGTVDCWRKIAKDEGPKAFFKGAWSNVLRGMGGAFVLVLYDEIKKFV", "test": "[…]ADP uptake in isolated bovine heart mitochondria with […] atractyloside; import decreased to […]", "format": "cell-based"}
{"smiles": "C=C1[C@@H]2CC[C@H]3[C@]4(C)C[C@H](O[C@@H]5O[C@H](CO)[C@@H](OS(=O)(=O)O)[C@H](OS(=O)(=O)O)[C@H]5OC(=O)CC(C)C)C[C@@H](C(=O)O)[C@H]4CC[C@]3(C2)[C@H]1O", "note": "[atractyloside]", "values": [{"measurement": "remaining activity at 50 µM", "value": "13.8 ± 1.1", "unit": "%"}]}
